We go through eight molecules from ChEMBL document CHEMBL5346899, “PKM2/PDK1 dual-targeted shikonin derivatives restore the sensitivity of EGFR-mutated NSCLC cells to gefitinib by remodeling glucose metabolism” (Eur J Med Chem, 2023).

Data set [1] deals with NCI-H1299. Nature of the data set: cells. Format: functional, cell-based. As to conditions: Homo sapiens, NCI-H1299, 24 h.
Description: Antiproliferative activity against human NCI-H1299 cells assessed as inhibition of cell growth incubated for 24 hrs by CCK-8 assay
Data set [2] has as its system NCI-H1975. The data set is described as follows: cells. It counts as functional, cell-based. The following applies: Homo sapiens, NCI-H1975, 24 h.
Description: Antiproliferative activity against human NCI-H1975 cells assessed as inhibition of cell growth incubated for 24 hrs by CCK-8 assay
Data set [3] can be described thus: in vitro. As to conditions: human, HEK293T cells.
Description: Cytotoxicity against HEK293T cells assessed as inhibition of cell growth incubated for 24 hrs by CCK-8 assay
Data set [4] has as its system HCC827. The data set is described as follows: cells. It counts as functional, cell-based. The following applies: Homo sapiens, HCC827, 24 h.
Description: Antiproliferative activity against human HCC827 cells assessed as inhibition of cell growth incubated for 24 hrs by CCK-8 assay
For data set [5], the system named is A549. The data set is described as follows: cells. It counts as functional, cell-based. As to conditions: Homo sapiens, A549, 24 h.
Description: Antiproliferative activity against human A549 cells assessed as inhibition of cell growth incubated for 24 hrs by CCK-8 assay
In data set [6] the test system is NCI-H1975. The data set is described as follows: Induction of apoptosis in human NCI-H1975 cells assessed as live cells at 10 micromol/L incubated for 24 hrs by Annexin V-FITC/PI staining based analysis (reference value: 88.7%). It counts as functional. As to conditions: dose 10 µmol/L, at 10 µM.
Data set [7] deals with NCI-H1975. Nature of the data set: Induction of apoptosis in human NCI-H1975 cells assessed as early apoptotic cells at 10 micromol/L incubated for 24 hrs by Annexin V-FITC/PI staining based analysis (reference value: 2.55%). Format: functional. As to conditions: dose 10 µmol/L, at 10 µM.
In data set [8] the test system is NCI-H1975. Nature of the data set: Induction of apoptosis in human NCI-H1975 cells assessed as dead cells at 10 micromol/L incubated for 24 hrs by Annexin V-FITC/PI staining based analysis (reference value: 0.103%). Format: functional. As to conditions: dose 10 µmol/L, at 10 µM.
The test system of data set [9] is NCI-H1299. The data set is described as follows: Induction of apoptosis in human NCI-H1299 cells assessed as dead cells at 500 micromol/L incubated for 24 hrs by Annexin V-FITC/PI staining based analysis (reference value: 0.021%). It counts as functional. As to conditions: dose 500 µmol/L, at 500 µM.
Data set [10] concerns NCI-H1299. Nature of the data set: Inhibition of glycolysis in human NCI-H1299 cells assessed as reduction in glucose consumption incubated for 24 hrs in presence of ML265 by colorimetric assay. It counts as functional, cell-based.
Data set [11] deals with NCI-H1299. Nature of the data set: Synergistic inhibition of NADPH production in human NCI-H1299 cells incubated for 2 hrs in presence of ML265 by NADP+/NADPH assay. It counts as functional, cell-based.
In data set [12] the test system is NCI-H1299. The data set is described as follows: Synergistic antiproliferative activity against human NCI-H1299 cells assessed as cell growth inhibition at 500 micromol/L incubated for 24 hrs in presence of ML265 by CCK-8 analysis. The following applies: dose 500.0 µmol/L. Format: functional, cell-based.
Data set [13] has as its system NCI-H1299. Nature of the data set: Induction of apoptosis in human NCI-H1299 cells assessed as late apoptotic cells at 500 micromol/L incubated for 24 hrs in presence of ML265 by Annexin V-FITC/PI staining based analysis (reference value: 2.63%). It counts as functional. The following applies: dose 500 µmol/L, at 500 µM.
Data set [14] concerns NCI-H1299. Nature of the data set: Inhibition of glycolysis in human NCI-H1299 cells assessed as reduction in lactate production incubated for 1 hrs in presence of ML265 by colorimetric assay. Format: functional, cell-based.
In data set [15] the test system is NCI-H1299. The data set is described as follows: Synergistic induction of oxidative phosphorylation in human NCI-H1299 cells assessed as increase in ATP production in presence of ML265 by luminescence based assay. It counts as functional, cell-based.
Data set [16] deals with NCI-H1299. The data set is described as follows: Induction of apoptosis in human NCI-H1299 cells assessed as live cells at 500 micromol/L incubated for 24 hrs in presence of ML265 by Annexin V-FITC/PI staining based analysis (reference value: 96.6%). It counts as functional. The following applies: dose 500 µmol/L, at 500 µM.
In data set [17] the test system is NCI-H1299. The data set is described as follows: Antitumor activity against human NCI-H1299 cells xenografted in mouse assessed as pathological damage to tumor tissue administered in presence of ML265. Format: functional.
Data set [18] concerns NCI-H1299. Nature of the data set: Induction of apoptosis in human NCI-H1299 cells assessed as early apoptotic cells at 500 micromol/L incubated for 24 hrs in presence of ML265 by Annexin V-FITC/PI staining based analysis (reference value: 0.772%). It counts as functional. As to conditions: dose 500 µmol/L, at 500 µM.
Data set [19] concerns NCI-H1299. The data set is described as follows: Induction of apoptosis in human NCI-H1299 cells assessed as live cells at 500 micromol/L incubated for 24 hrs by Annexin V-FITC/PI staining based analysis (reference value: 96.6%). It counts as functional. As to conditions: dose 500 µmol/L, at 500 µM.
Data set [20] relates to NCI-H1299. The data set is described as follows: Induction of apoptosis in human NCI-H1299 cells assessed as dead cells at 500 micromol/L incubated for 24 hrs in presence of ML265 by Annexin V-FITC/PI staining based analysis (reference value: 0.021%). Format: functional. The following applies: dose 500 µmol/L, at 500 µM.
In data set [21] the test system is NCI-H1299. The data set is described as follows: Induction of apoptosis in human NCI-H1299 cells assessed as late apoptotic cells at 500 micromol/L incubated for 24 hrs by Annexin V-FITC/PI staining based analysis (reference value: 2.63%). It counts as functional. The following applies: dose 500 µmol/L, at 500 µM.
Data set [22] concerns NCI-H1299. Nature of the data set: Induction of apoptosis in human NCI-H1299 cells assessed as early apoptotic cells at 500 micromol/L incubated for 24 hrs by Annexin V-FITC/PI staining based analysis (reference value: 0.772%). As to conditions: dose 500 µmol/L, at 500 µM. Format: functional.

Molecules are shown by their SMILES. The source made the active and inactive calls. The calls are words filed in the database; no cut-off is given here.

Regarding `COC(=O)[C@H](CS[C@H](CC=C(C)C)C1=CC(=O)c2c(O)ccc(O)c2C1=O)NC(=O)CCCC[C@@H]1CCSC(c2cccc(C(F)(F)F)c2)S1` (some centres not stated), the IC50 in data set [1] amounted to 3.53 µM; in data set [2] it was 3.66 µM; in data set [4], 4.34 µM; in data set [5], 4.59 µM. The molecule further gave a half-inhibitory concentration (IC50) at 24 h in [3] of 83.8 µM.

Regarding `COC(=O)[C@H](CS[C@H](CC=C(C)C)C1=CC(=O)c2c(O)ccc(O)c2C1=O)NC(=O)CCCC[C@@H]1CCSC(c2ccccc2Cl)S1` (some centres not stated), the IC50 in data set [1] is 6.73 µM; in data set [2], 8.3 µM; in data set [4], 8.31 µM; in data set [5], 9.56 µM. The same molecule yielded an IC50 at 24 h in data set [3] of 84.5 µM.

As for `COc1cc2ncnc(Nc3ccc(F)c(Cl)c3)c2cc1OCCCN1CCOCC1` [GEFITINIB], the Activity in [6] turned out to be 89%; in [7] it was 1.45%; in data set [8], 0%.

Regarding `COC(=O)[C@H](CS[C@H](CC=C(C)C)C1=CC(=O)c2c(O)ccc(O)c2C1=O)NC(=O)CCCC[C@@H]1CCSC(c2ccc(OC)cc2)S1` (some centres not stated), the IC50 stood at 2.81 µM in data set [1], 2.71 µM in data set [2], 6.44 µM in data set [4] and 2.34 µM in [5]. Further, in data set [3], the IC50 at 24 h turned out to be 86.2 µM.

Regarding `CN(C)C(=O)c1ccc(S(=O)(=O)c2ccc(NC(=O)[C@@](C)(O)C(F)(F)F)c(Cl)c2)cc1`, the Activity was 0.01% in data set [9]; 71.7% in [13]; 20.6% in data set [16]; 7.63% in [18]; 59% in data set [19]; 0% in data set [20]. Moreover, the Activity in data set [21] came to 12.1%; in data set [22], 28.9%. Besides, the inhibition entry in [10], in [11] and in data set [14] was “Active” each time. For the same molecule, the outcome in data set [12], in [15] and in [17] was Active.

Consider `COC(=O)[C@H](CS[C@H](CC=C(C)C)C1=CC(=O)c2c(O)ccc(O)c2C1=O)NC(=O)CCCC[C@@H]1CCSC(c2ccc(C)cc2)S1` (some centres not stated), for which the IC50 in data set [1] amounted to 10.5 µM; in [2] it was 4.12 µM; in data set [4], 10.4 µM; in data set [5] it was 12.4 µM. In data set [3], 80.4 µM corresponded to half-maximal inhibition (IC50 at 24 h).

Take `COC(=O)[C@H](CS[C@H](CC=C(C)C)C1=CC(=O)c2c(O)ccc(O)c2C1=O)NC(=O)CCCC[C@@H]1CCSC(c2cccc(Cl)c2Cl)S1` (some centres not stated): the IC50 in data set [1] came out at 4.5 µM; in data set [2], 1.7 µM; in data set [4], 16.6 µM; in [5], 16.1 µM. The same molecule registered an IC50 at 24 h in data set [3] of 98.2 µM.

Consider `COC(=O)[C@H](CS[C@H](CC=C(C)C)C1=CC(=O)c2c(O)ccc(O)c2C1=O)NC(=O)CCCC[C@@H]1CCSC(c2ccc(Br)cc2)S1` (some centres not stated), for which the IC50 amounted to 3.27 µM in [1], 4.68 µM in data set [2], 13.2 µM in data set [4] and 18.1 µM in data set [5]. Further, it took 88.8 µM to reach half-maximal inhibition in data set [3] (IC50 at 24 h).
